Test results as given in ChEMBL document CHEMBL1201862, “PubChem BioAssay data set” (2004).
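Results reflect a 48-hour exposure of cells in 96-well plates to compound at five concentrations. The concentration for 50% growth inhibition is given as GI50.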 Activity calls are given as the source filed them. No stated cut-off is given here; in the data, active = GI50 up to about 1.1 µM and inactive = higher.

Key:
Assay in all cases: inhibition of tumour cell growth, NCI panel, 48 h
[1] = system: Malme-3M
[2] = system: MDA-N
[3] = system: HOP-62
[4] = system: A549
[5] = system: HCT-15
[6] = system: RPMI-8226
[7] = system: NCI-H226
[8] = system: UO-31
[9] = system: SR
[10] = system: M14
[11] = system: CAKI-1
[12] = system: EKVX
[13] = system: HCC 2998
[14] = system: SK-MEL-28
[15] = system: MCF7
[16] = system: OVCAR-3
[17] = system: KM12
[18] = system: K562
[19] = system: SK-OV-3
[20] = system: MOLT-4
[21] = system: CCRF-CEM
[22] = system: LOX IMVI
[23] = system: SK-MEL-5
[24] = system: HCT-116
[25] = system: A498
[26] = system: SF-539
[27] = system: NCI-H460
[28] = system: NCI-H522
[29] = system: SW-620
[30] = system: UACC-257
[31] = system: HL-60
[32] = system: MDA-MB-231
[33] = system: ACHN
[34] = system: U-251
[35] = system: OVCAR-5
[36] = system: PC-3
[37] = system: 786-0
[38] = system: SK-MEL-2
[39] = system: OVCAR-4
[40] = system: HT-29
[41] = system: OVCAR-8
[42] = system: DU-145
[43] = system: SNB-75
[44] = system: T47D
[45] = system: TK-10
[46] = system: SF-268
[47] = system: SF-295
[48] = system: MDA-MB-435
[49] = system: HOP-92
[50] = system: NCI/ADR-RES
[51] = system: UACC-62
[52] = system: BT-549
[53] = system: COLO 205
[54] = system: IGROV-1
[55] = system: NCI-H23
[56] = system: Hs-578T
[57] = system: SN12C

O=[N+]([O-])c1ccc(C2=NOC(c3ccccc3F)N2C23CC4CC(CC(C4)C2)C3)cc1 (configuration not stated)
GI50 [1]: > 100 µM (inactive) | GI50 [2]: > 100 µM (inactive) | GI50 [3]: > 100 µM (inactive) | GI50 [4]: > 100 µM (inactive) | GI50 [5]: > 100 µM | GI50 [6]: 98.9 µM (inactive) | GI50 [7]: > 100 µM (inactive) | GI50 [8]: > 100 µM (inactive) | GI50 [9]: > 100 µM (inactive) | GI50 [10]: > 100 µM (inactive) | GI50 [11]: > 100 µM (inactive) | GI50 [12]: > 100 µM (inactive) | GI50 [13]: > 100 µM (inactive) | GI50 [14]: > 100 µM (inactive) | GI50 [15]: > 100 µM (inactive) | GI50 [16]: > 100 µM (inactive) | GI50 [17]: > 100 µM (inactive) | GI50 [18]: > 100 µM (inactive) | GI50 [19]: > 100 µM (inactive) | GI50 [20]: > 100 µM (inactive) | GI50 [21]: > 100 µM (inactive) | GI50 [22]: > 100 µM (inactive) | GI50 [23]: > 100 µM (inactive) | GI50 [24]: > 100 µM (inactive) | GI50 [25]: > 100 µM (inactive) | GI50 [26]: > 100 µM (inactive) | GI50 [27]: > 100 µM (inactive) | GI50 [28]: > 100 µM (inactive) | GI50 [29]: > 100 µM (inactive) | GI50 [30]: > 100 µM (inactive) | GI50 [31]: 25.9 µM (inactive) | GI50 [32]: > 100 µM (inactive) | GI50 [33]: > 100 µM (inactive) | GI50 [34]: > 100 µM (inactive) | GI50 [35]: > 100 µM (inactive) | GI50 [36]: > 100 µM (inactive) | GI50 [37]: > 100 µM (inactive) | GI50 [38]: > 100 µM (inactive) | GI50 [39]: > 100 µM (inactive) | GI50 [40]: > 100 µM (inactive) | GI50 [41]: > 100 µM (inactive) | GI50 [42]: > 100 µM (inactive) | GI50 [43]: > 100 µM (inactive) | GI50 [44]: > 100 µM (inactive) | GI50 [45]: > 100 µM (inactive) | GI50 [46]: > 100 µM (inactive) | GI50 [47]: > 100 µM (inactive) | GI50 [48]: > 100 µM (inactive) | GI50 [49]: 7.43 µM (inactive) | GI50 [50]: > 100 µM (inactive) | GI50 [51]: > 100 µM (inactive) | GI50 [52]: > 100 µM (inactive) | GI50 [53]: > 100 µM (inactive) | GI50 [54]: > 100 µM (inactive) | GI50 [55]: > 100 µM (inactive) | GI50 [56]: > 100 µM (inactive) | GI50 [57]: > 100 µM (inactive)
